Data: the supplement of paper PMC7023306
± gives the uncertainty stated by the source.

Test: TIMS collision cross section in N2 (TIMS CCS N2); higher = larger gas-phase ion size
Details: drift gas: N2 (99.4% N2, 0.6% O2), calibration: Stow et al. 2017 values for Agilent ESI-L Low Concentration Tune Mix, ionization: negative ESI
Procedure: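 Authentic plant natural product standards (10-50 ppm in 80% methanol) were analysed by UHPLC (BEH C18, 60 °C) coupled to a Bruker timsTOF Pro in negative ESI with N2 drift gas. TIMS collision cross sections were computed from mobility peak apices after calibration with Agilent Tune Mix using Stow et al. reference values. Values are the average of triplicate runs on different days, reported per annotated ion species (deprotonated ion, adducts, dimer, oxidized ion).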

| TIMS collision cross section in N2 (ion species: [2M-H]-) | TIMS collision cross section in N2 (ion species: [M-H]-) | SMILES | other results |
| --- | --- | --- | --- |
| – | 158.38 ± 0.01 Å² | O=C1CC(c2ccccc2)Oc2c(O)ccc(O)c21 (configuration not stated) [5,8-Dihydroxyflavanone] | – |
| – | 231.11 ± 0.1 Å² | C[C@@H]1O[C@@H](OC[C@H]2O[C@@H](Oc3cc(O)c4c(=O)cc(-c5ccc(O)cc5)oc4c3)[C@H](O)[C@@H](O)[C@@H]2O)[C@H](O)[C@H](O)[C@H]1O [Isorhoifolin] | TIMS collision cross section in N2 (ion species: [M-H+Na+HCO2H]-): 237.1 ± 0.28 Å² |
| 257.82 ± 0.34 Å² | 164.31 ± 0.31 Å² | COc1ccc2c(=O)cc(-c3ccc(O)cc3)oc2c1 [7-Methoxy-4'-hydroxyflavone] | – |
| – | 215.92 ± 0.17 Å² | C[C@@H]1O[C@@H](O[C@H]2[C@H](Oc3cc(O)c4c(c3)O[C@H](c3ccc(O)cc3)CC4=O)O[C@H](CO)[C@@H](O)[C@@H]2O)[C@H](O)[C@H](O)[C@H]1O [Naringin] | TIMS collision cross section in N2 (ion species: [M-H+Na+HCO2H]-): 220.79 ± 0.26 Å² |
| – | 168.54 ± 0.27 Å² | COc1cc(O)c2c(c1)O[C@H](c1ccc(O)cc1)CC2=O [sakuranetin] | – |
| – | 149.95 ± 0.12 Å² | O=c1cc(-c2ccccc2O)oc2ccccc12 [2'-Hydroxyflavone] | – |
| – | 225.59 ± 0.085 Å² | C[C@@H]1O[C@@H](O[C@H]2[C@H](Oc3cc(O)c4c(=O)cc(-c5ccc(O)cc5)oc4c3)O[C@H](CO)[C@@H](O)[C@@H]2O)[C@H](O)[C@H](O)[C@H]1O [Rhoifolin] | TIMS collision cross section in N2 (ion species: [M-H+Na+HCO2H]-): 229.74 ± 2.3 Å² |
| – | 226.23 ± 0.27 Å² | CC1(C)CC[C@]2(C(=O)O)CC[C@]3(C)C(=CC[C@@H]4[C@@]5(C)C[C@H](O)[C@H](O)[C@@](C)(C(=O)O)[C@@H]5CC[C@]43C)[C@@H]2C1 [medicagenic acid] | TIMS collision cross section in N2 (ion species: [M-H+Na+HCO2H]-): 243.47 ± 0.081 Å² |
| 231.78 ± 0.34 Å² | 165.03 ± 0.085 Å² | COc1ccc(-c2cc(=O)c3ccc(O)cc3o2)cc1 [7-Hydroxy-4'-methoxyflavone] | – |
| 234 ± 0.056 Å² | – | COc1ccc(-c2cc(=O)c3ccc(O)cc3o2)cc1 [Pratol] | – |
| 246.33 ± 0.2 Å² | 157.59 ± 0.0071 Å² | O=c1c(-c2ccc(O)cc2)coc2cc(O)ccc12 [Daidzein] | – |
| – | 154.57 ± 0.12 Å² | O=C1c2ccc(O)cc2O[C@H](c2ccc(O)c(O)c2)[C@H]1O [3,7,3',4'-Tetrahydroxyflavanone (fustin)] | TIMS collision cross section in N2 (ion species: [M-3H]-): 160.22 ± 0.11 Å² |
| 234.8 ± 0.14 Å² | 161.08 ± 0.12 Å² | O=c1c(O)c(-c2ccc(O)cc2)oc2cc(O)cc(O)c12 [Kaempferol] | – |
| – | 225.46 ± 0.32 Å² | C[C@H]1[C@H](C)CC[C@]2(C(=O)O)CC[C@]3(C)C(=CC[C@@H]4[C@@]5(C)C[C@@H](O)[C@@H](O)[C@](C)(CO)[C@@H]5CC[C@]43C)[C@H]12 [Pygenic acid B] | – |
| – | 185.44 ± 0.18 Å² | COc1ccc(-c2cc(=O)c3c(O)c(OC)c(O)cc3o2)cc1OC [Eupatilin] | TIMS collision cross section in N2 (ion species: [M-H+Na+HCO2H]-): 201.78 ± 0.15 Å² |
| 218.5 ± 0.57 Å² | 154.89 ± 0.41 Å² | O=c1cc(-c2cccc(O)c2)oc2ccccc12 [3'-Hydroxyflavone] | – |
| – | 159.43 ± 0.061 Å² | CCCCCCCCCCCCC(=O)O [n-Tridecanoic acid] | – |
| 277.92 ± 0.32 Å² | 189.39 ± 0.39 Å² | CCCCCCCCCCO[C@@H]1O[C@H](CO)[C@@H](O)[C@H](O)[C@H]1O [n-Decyl-beta-D-glucopyranoside] | TIMS collision cross section in N2 (ion species: [M-H+HCO2H]-): 198.21 ± 0.31 Å² |
| – | 183.54 ± 0.32 Å² | CC(C)=CCc1c(O)cc(O)c2c1O[C@H](c1ccc(O)cc1)CC2=O [8-prenylnaringenin] | – |
| 219.76 ± 0.28 Å² | 172.79 ± 0.23 Å² | COc1ccc([C@@H]2CC(=O)c3c(O)cc(O)cc3O2)cc1O [Hesperetin] | – |

More lines, now with the values behind:

| SMILES | TIMS collision cross section in N2 (ion species: [2M-H]-) | TIMS collision cross section in N2 (ion species: [M-H]-) | other results |
| --- | --- | --- | --- |
| O=c1cc(-c2ccc(O)c(O)c2)oc2cccc(O)c12 [5,3',4'-Trihydroxyflavone] | 244.46 ± 0.1 Å² | 156.4 ± 0.18 Å² | – |
| COc1cc2oc(-c3ccc(O)cc3)cc(=O)c2c(O)c1O [Sorbifolin] | – | 166.28 ± 0.23 Å² | – |
| Cc1c(O)c(C)c2c(c1O)C(=O)C[C@@H](c1ccc(O)cc1)O2 [Farrerol] | – | 172.28 ± 0.21 Å² | TIMS collision cross section in N2 (ion species: [M-H+Na+HCO2H]-): 186.6 ± 0.36 Å² |
| O=C1C[C@@H](c2ccc(O)cc2)Oc2cc(O)ccc21 [Liquiritigenin] | 202.54 ± 0.082 Å² | 159.28 ± 0.075 Å² | – |
| CC1(C)CC[C@]2(C(=O)O)CC[C@]3(C)C(=CC[C@@H]4[C@@]5(C)C[C@H](O)[C@H](O)[C@@](C)(CO)[C@@H]5CC[C@]43C)[C@@H]2C1 [bayogenin] | – | 225.09 ± 0.24 Å² | TIMS collision cross section in N2 (ion species: [M-H+HCO2H]-): 234.73 ± 0.27 Å² |
| CC(C)=CCC/C(C)=C/Cc1c(O)cc2c(c1O)C(=O)C[C@@H](c1ccc(O)cc1)O2 [6-geranylnaringenin] | 275.87 ± 0.17 Å² | 204.76 ± 0.16 Å² | – |
| O=C(O)[C@H]1O[C@@H](Oc2cc3oc(-c4ccc(O)cc4)cc(=O)c3c(O)c2O)[C@H](O)[C@@H](O)[C@@H]1O [scutellarin (Scutellarein-7-glucuronide)] | – | – | TIMS collision cross section in N2 (ion species: [M-3H]-): 206.59 ± 0.074 Å² |
| COc1cc(-c2cc(=O)c3c(O)c(OC)c(O)c(OC)c3o2)cc(O)c1OC [scaposin] | – | 193.54 ± 0.18 Å² | TIMS collision cross section in N2 (ion species: [M-H+Na+HCO2H]-): 209.41 ± 0.26 Å² |
| COc1ccc(C2CC(=O)c3ccc(O)cc3O2)cc1OC (configuration not stated) [3',4'-Dimethoxy-7-hydroxyflavanone] | 241.38 ± 0.035 Å² | 180.72 ± 0.067 Å² | – |
| COc1c(O)cc2oc(-c3ccc(O)cc3)cc(=O)c2c1O [Hispidulin] | – | 165.52 ± 0.17 Å² | – |
| O=c1cc(-c2ccccc2)oc2cc(O)ccc12 [7-Hydroxyflavone] | 228.17 ± 0.39 Å² | 153.67 ± 0.056 Å² | – |
| O=c1c(O)c(-c2ccccc2)oc2cc(O)cc(O)c12 [galangin] | 238 ± 0.12 Å² | 156.93 ± 0.11 Å² | – |
| O=c1c(O)c(-c2ccccc2)oc2ccccc12 [3-Hydroxyflavone] | – | 152.04 ± 0.28 Å² | TIMS collision cross section in N2 (ion species: [M-H+Na+HCO2H]-): 172.34 ± 0.36 Å² |
| CC1(C)[C@@H](O[C@H]2O[C@H](C(=O)O)[C@@H](O)[C@H](O)[C@H]2O[C@@H]2O[C@H](C(=O)O)[C@@H](O)[C@H](O)[C@H]2O)CC[C@]2(C)[C@H]3C(=O)C=C4[C@@H]5C[C@@](C)(C(=O)O)CC[C@]5(C)CC[C@@]4(C)[C@]3(C)CC[C@@H]12 [Glycyrrhizic acid] | – | 279.43 ± 0.38 Å² | – |
| Oc1ccc2c(c1)O[C@H]1c3ccc(O)cc3OC[C@@H]21 [Demethyl medicarpin] | – | 161.89 ± 0.17 Å² | – |
| COc1ccc(-c2coc3cc(O)cc(O)c3c2=O)cc1 [Biochanin A (5,7-Dihydroxy-4'-methoxyisoflavone)] | 261.04 ± 0.32 Å² | 166.11 ± 0.071 Å² | – |
| CC(C)=CCC1=C(O)C(O)(CC=C(C)C)C(=O)C(C(=O)C(C)C)=C1O (configuration not stated) [Cohumulone] | – | 184.13 ± 0.17 Å² | – |
